From PubChem BioAssay AID2790 (The Scripps Research Institute Molecular Screening Center, 2010)
The source made the active and inactive calls.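 The calls were made as follows: active = IC50 at or below 10 micromolar; inactive = IC50 above 10 micromolar.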

Target: Bcl-2-like protein 1 (Homo sapiens) (UniProt Q07817)
Test: Bcl-xL inhibition potency, Bim BH3 displacement, dose response, counter-screen for MCL1-BIM inhibitor project, biochemical, fluorescence polarization, powder samples (AID 2790)
Conditions: GST-BCL-XL / FITC-Bim BH3 fluorescence polarization

Chain of Bcl-2-like protein 1 (Homo sapiens) (Q07817 whole entry, looked up): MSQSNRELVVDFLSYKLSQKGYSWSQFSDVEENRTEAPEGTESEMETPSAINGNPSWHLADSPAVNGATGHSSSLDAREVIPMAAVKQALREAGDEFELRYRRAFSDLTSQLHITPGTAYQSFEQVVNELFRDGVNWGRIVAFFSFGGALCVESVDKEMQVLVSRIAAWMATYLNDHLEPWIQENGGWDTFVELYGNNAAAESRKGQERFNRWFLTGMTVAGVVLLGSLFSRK

Row | Structure (SMILES) | IC50
1 | CCc1sc(C(C2C(=O)CC(C)(C)CC2=O)C2C(=O)CC(C)(C)CC2=O)cc1[N+](=O)[O-] | > 109 µM (inactive)
2 | COc1ccc(-n2cccc2/C=C2\C(=N)N3N=C(c4ccco4)SC3=NC2=O)cc1 | > 109 µM (inactive)
3 | COC(=O)c1ccccc1NCc1cc(=O)oc2cc(O)c(O)cc12 | > 109 µM (inactive)
4 | COc1ccc(Cc2nnc(NC(=O)Cc3cccs3)s2)cc1OC | > 109 µM (inactive)
5 | Cc1ccc(C(=O)O)cc1-c1ccc(/C=C2\SC(=O)N(CC(=O)Nc3ccc4c(c3)OCO4)C2=O)o1 | > 109 µM (inactive)
6 | C=CCn1c(SCC(=O)c2ccc(O)c(O)c2)nnc1-c1cccnc1 | inactive
7 | Nc1ccc(C(=O)NN=Cc2cc(N=Nc3cccc4ccccc34)ccc2O)cc1 | > 109 µM (inactive)
8 | C=CCN=c1scc(-c2ccco2)n1/N=C/c1ccc(O)c(O)c1O | > 109 µM (inactive)
9 | c1coc(-c2nc(-c3ccco3)c(-c3ccco3)nc2-c2ccco2)c1 | > 109 µM (inactive)
10 | O=C1COc2ccc(C(=O)COC(=O)/C=C/c3ccc(Br)o3)cc2N1 | > 109 µM (inactive)

Next, values leading:

Row | IC50 | Structure (SMILES)
11 | > 109 µM (inactive) | O=C(NN=Cc1cccc(F)c1)c1cc(-c2ccco2)nc2ccccc12
12 | > 109 µM (inactive) | CCOc1ccc(NC(=O)c2cccc(-n3cccc3)c2)cc1S(=O)(=O)N1CCOCC1
13 | > 109 µM (inactive) | O=C(NN=Cc1ccc(-c2ccc(S(=O)(=O)Nc3ncccn3)cc2)o1)c1cc2ccccc2cc1O
14 | > 109 µM (inactive) | COc1ccc(NC(=O)CN(C)C(=O)c2cc3c(s2)CCC3)cc1
15 | > 109 µM (inactive) | Cc1cccc(NC(=O)CNC(=O)c2cccc(-n3cccc3)c2)c1C
